The target in test [1] is T1, dUTPase (Homo sapiens, UniProt P33316).
T1 construct: gene DUT; human recombinant dUTPase
T1 sequence (P33316 70-252): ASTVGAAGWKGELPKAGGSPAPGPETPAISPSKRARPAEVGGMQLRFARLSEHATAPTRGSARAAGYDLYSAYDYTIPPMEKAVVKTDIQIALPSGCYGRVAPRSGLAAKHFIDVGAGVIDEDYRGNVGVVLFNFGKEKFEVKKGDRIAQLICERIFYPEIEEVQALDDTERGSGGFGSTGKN
As to the kind of experiment: malachite green assay of substrate hydrolysis by purified enzyme. It is filed as biochemical.

Test [2] addresses T1, dUTPase. As to the kind of experiment: malachite green activity assay with dUTP as substrate, purified recombinant enzyme. It counts as biochemical.

Here are results for 4 molecules from article PMC5410339, “dUTPase inhibition augments replication defects of 5-Fluorouracil” (Oncotarget, 2017).

Structures are written as SMILES.

For `O=c1[nH]c(=O)n([C@H]2C[C@H](O)[C@@H](COP(=O)(O)OP(=O)(O)OP(=O)(O)O)O2)cc1F` [5-FdUTP], the “malachite green assay of substrate hydrolysis by purified enzyme” value on dUTPase [1] is recorded as 5.5 μM formed PPi per second per μM enzyme. For the molecule `O=C(CCCn1ccc(=O)[nH]c1=O)N1CCC[C@H]1C(c1ccccc1)c1ccccc1` [compound 1], the IC50 at dUTPase [2] is 0.74 µM. Regarding `CC(NS(=O)(=O)CCCOCn1ccc(=O)[nH]c1=O)c1cccc(OC2CCCC2)c1` (stereo not shown) [compound 2], the IC50 on dUTPase [2] was 0.025 µM. For the molecule `O=c1ccn([C@H]2C[C@H](O)[C@@H](COP(=O)(O)OP(=O)(O)OP(=O)(O)O)O2)c(=O)[nH]1` [dUTP], the “malachite green assay of substrate hydrolysis by purified enzyme” value on dUTPase [1] is recorded as 6.6 μM formed PPi per second per μM enzyme.

The IC50 is the concentration that gives 50% inhibition.
